Reference: publication PMC2747815 (Journal of immunotherapy (Hagerstown, Md. : 1997), 2009)

B1: OVA: recombinant full-length OVA protein purchased from Sigma, control protein (protein, UniProt P01012 1-386, looked up)
chain: MGSIGAASMEFCFDVFKELKVHHANENIFYCPIAIMSALAMVYLGAKDSTRTQINKVVRFDKLPGFGDSIEAQCGTSVNVHSSLRDILNQITKPNDVYSFSLASRLYAEERYPILPEYLQCVKELYRGGLEPINFQTAADQARELINSWVESQTNGIIRNVLQPSSVDSQTAMVLVNAIVFKGLWEKAFKDEDTQAMPFRVTEQESKPVQMMYQIGLFRVASMASEKMKILELPFASGTMSMLVLLPDEVSGLEQLESIINFEKLTEWTSSNVMEERKIKVYLPRMKMEEKYNLTSVLMAMGITDVFSSSANLSGISSAESLKISQAVHAAHAEINEAGREVVGSAEAGVDAASVSEEFRADHPFLFCIKHIATNAVLFFGRCVSP
modifications: full-length

Experiments:
[1] = system: LN cells of TRP1-/-//DR4+ (KO) and TRP1+/-//DR4+ (WT) mice, antigen pulsed onto DR4+ 1088 EBV-B; assay: Ex vivo IFN-γ ELISPOT of LN cells from hTRP-1-immunized KO and WT mice; type: cell-based, mouse; conditions: for ex vivo ELISPOT reactivity, KO-derived compared with WT-derived CD4+ T cells: peptide 100 μM or protein 50 μg/ml pulsed onto 1088 EBV-B, 24 hours; for T cell frequency by ex vivo IFN-γ ELISPOT titration (mean): peptide 100 μM, Fig. 2D
[2] = system: LN cells of DR4 Tg mice, antigen pulsed onto DR4+ 1088 EBV-B; assay: IFN-γ ELISA of expanded LN T cells from mTRP-1-immunized DR4 Tg mice; type: cell-based, mouse; conditions: protein pulsed onto DR4+ 1088 EBV-B at 25 μg/ml; compared with mTRP-1 protein
HLA-DR4 (HLA-DRB1*0401) = HLA-DR4 (HLA-DRB1*0401) (Homo sapiens, UniProt P01903+P01911, A100K/A169T/F76Y/I96L/K127E/L162R/M171V/N62H/P40V/Q125Y/R42H/S133A/S149N/S66Y/V115G/V209L/W38E); conditions: competitive binding assay, purified class II, 48h in PBS with NP40; Fig. 1B

Row | Molecule | ex vivo ELISPOT reactivity, KO-derived compared with WT-derived CD4+ T cells [1] | specific IFN-γ secretion by ELISA, protein [2] | T cell frequency by ex vivo IFN-γ ELISPOT titration (mean) ([1]; TRP1+/-//DR4+ (WT) LN cells) | T cell frequency by ex vivo IFN-γ ELISPOT titration (mean) ([1]; TRP1-/-//DR4+ (KO) LN cells) | relative affinity (IC50), human variant compared with murine counterpart (HLA-DR4 (HLA-DRB1*0401))
1 | hTRP-1 protein: recombinant human TRP-1 protein | significantly greater | superior | – | – | –
2 | hTRP-1_277-297: HLA-DRB1*0401-restricted epitope from human TRP-1, positions 277-297 (ISPNSVFSQWRVVCDSLEDYD; UniProt P17643 277-297, looked up, fragment) | – | – | 158 | 163 | nearly three times less
3 | mTRP-1 protein: recombinant murine TRP-1 protein | significantly greater | – | – | – | –
4 | B1 | – | No significant immune response | – | – | –
